Laboratory results published in publication doi:10.1101/2021.04.08.439011v1 (biorxiv, 2021).

Assays:
ABL1(M351T) = ABL1(M351T) (Homo sapiens, UniProt P00519, M351T); conditions: phosphorylated; 1 µM; binder
BIKE = BIKE (Homo sapiens, UniProt Q9NSY1); conditions: 1 µM; binder
CASK = CASK (Homo sapiens, UniProt O14936); conditions: 1 µM; binder
CHEK2 = CHEK2 (Homo sapiens, UniProt O96017); conditions: 1 µM; binder
CLK1 = CLK1 (Homo sapiens, UniProt P49759); conditions: 1 µM; binder
CSNK1A1L = CSNK1A1L (Homo sapiens, UniProt Q8N752); conditions: 1 µM; binder
EPHB1 = EPHB1 (Homo sapiens, UniProt P54762); conditions: 1 µM; binder
FGFR1 = FGFR1 (Homo sapiens, UniProt P11362); conditions: 1 µM; binder
FGFR2 = FGFR2 (Homo sapiens, UniProt P21802); conditions: 1 µM; binder
FLT4 = FLT4 (Homo sapiens, UniProt P35916); conditions: 1 µM; binder
FRK = FRK (Homo sapiens, UniProt P42685); conditions: 1 µM; binder
HIPK1 = HIPK1 (Homo sapiens, UniProt Q86Z02); conditions: 1 µM; binder
HIPK2 = HIPK2 (Homo sapiens, UniProt Q9H2X6); conditions: 1 µM; binder
KIT(L576P) = KIT(L576P) (Homo sapiens, UniProt P10721, L576P); conditions: 1 µM; binder
MAP3K2 = MAP3K2 (Homo sapiens, UniProt Q9Y2U5); conditions: 1 µM; binder
MAP4K4 = MAP4K4 (Homo sapiens, UniProt O95819); conditions: 1 µM; binder
MARK2 = MARK2 (Homo sapiens, UniProt Q7KZI7); conditions: 1 µM; binder
MKK7 = MKK7 (Homo sapiens, UniProt O14733); conditions: 1 µM; binder
MLK2 = MLK2 (Homo sapiens, UniProt Q02779); conditions: 1 µM; binder
MRCKA = MRCKA (Homo sapiens, UniProt Q5VT25); conditions: 1 µM; binder
PCTK1 = PCTK1 (Homo sapiens, UniProt Q00536); conditions: 1 µM; binder
PIK3CB = PIK3CB (Homo sapiens, UniProt P42338); conditions: 1 µM; binder
PIK3CD = PIK3CD (Homo sapiens, UniProt O00329); conditions: 1 µM; binder
PIK3CG = PIK3CG (Homo sapiens, UniProt P48736); conditions: 1 µM; binder
PRKCH = PRKCH (Homo sapiens, UniProt P24723); conditions: 1 µM; binder
PRKCQ = PRKCQ (Homo sapiens, UniProt Q04759); conditions: 1 µM; binder
S6K1 = S6K1 (Homo sapiens, UniProt P23443); conditions: 1 µM; binder
TAOK1 = TAOK1 (Homo sapiens, UniProt Q7L7X3); conditions: 1 µM; binder
VRK2 = VRK2 (Homo sapiens, UniProt Q86Y07); conditions: 1 µM; binder
ZAP70 = ZAP70 (Homo sapiens, UniProt P43403); conditions: 1 µM; binder

VRK2, sequence (Q86Y07 whole entry): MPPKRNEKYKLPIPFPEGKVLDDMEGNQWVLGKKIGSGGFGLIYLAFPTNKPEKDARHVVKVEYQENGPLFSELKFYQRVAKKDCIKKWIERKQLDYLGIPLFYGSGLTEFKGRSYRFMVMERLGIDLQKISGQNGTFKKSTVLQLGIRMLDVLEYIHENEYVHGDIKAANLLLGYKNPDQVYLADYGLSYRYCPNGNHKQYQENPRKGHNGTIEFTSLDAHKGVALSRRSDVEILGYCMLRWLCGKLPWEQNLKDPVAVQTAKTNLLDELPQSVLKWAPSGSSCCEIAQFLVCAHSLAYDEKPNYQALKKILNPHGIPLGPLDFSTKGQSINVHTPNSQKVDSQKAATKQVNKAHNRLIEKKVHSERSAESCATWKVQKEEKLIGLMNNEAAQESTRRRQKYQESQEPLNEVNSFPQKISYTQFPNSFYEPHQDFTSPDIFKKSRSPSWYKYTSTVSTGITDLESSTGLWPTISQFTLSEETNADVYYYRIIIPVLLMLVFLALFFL
CHEK2, sequence (O96017 whole entry): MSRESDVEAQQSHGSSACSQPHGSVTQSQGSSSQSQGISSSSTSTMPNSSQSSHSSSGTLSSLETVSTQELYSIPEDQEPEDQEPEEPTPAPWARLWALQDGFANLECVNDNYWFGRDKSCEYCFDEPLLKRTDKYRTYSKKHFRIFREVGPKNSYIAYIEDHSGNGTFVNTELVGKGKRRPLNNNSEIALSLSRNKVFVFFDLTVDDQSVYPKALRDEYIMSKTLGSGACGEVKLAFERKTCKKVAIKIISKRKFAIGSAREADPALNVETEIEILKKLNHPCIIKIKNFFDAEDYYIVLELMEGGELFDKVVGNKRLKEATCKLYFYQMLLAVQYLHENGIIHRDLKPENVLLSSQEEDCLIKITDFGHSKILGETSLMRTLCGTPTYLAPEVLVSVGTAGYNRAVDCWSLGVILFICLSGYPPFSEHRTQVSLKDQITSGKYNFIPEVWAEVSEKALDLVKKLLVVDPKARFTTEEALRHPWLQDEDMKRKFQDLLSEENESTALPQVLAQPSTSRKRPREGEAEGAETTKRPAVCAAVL
PIK3CB, sequence (P42338 whole entry): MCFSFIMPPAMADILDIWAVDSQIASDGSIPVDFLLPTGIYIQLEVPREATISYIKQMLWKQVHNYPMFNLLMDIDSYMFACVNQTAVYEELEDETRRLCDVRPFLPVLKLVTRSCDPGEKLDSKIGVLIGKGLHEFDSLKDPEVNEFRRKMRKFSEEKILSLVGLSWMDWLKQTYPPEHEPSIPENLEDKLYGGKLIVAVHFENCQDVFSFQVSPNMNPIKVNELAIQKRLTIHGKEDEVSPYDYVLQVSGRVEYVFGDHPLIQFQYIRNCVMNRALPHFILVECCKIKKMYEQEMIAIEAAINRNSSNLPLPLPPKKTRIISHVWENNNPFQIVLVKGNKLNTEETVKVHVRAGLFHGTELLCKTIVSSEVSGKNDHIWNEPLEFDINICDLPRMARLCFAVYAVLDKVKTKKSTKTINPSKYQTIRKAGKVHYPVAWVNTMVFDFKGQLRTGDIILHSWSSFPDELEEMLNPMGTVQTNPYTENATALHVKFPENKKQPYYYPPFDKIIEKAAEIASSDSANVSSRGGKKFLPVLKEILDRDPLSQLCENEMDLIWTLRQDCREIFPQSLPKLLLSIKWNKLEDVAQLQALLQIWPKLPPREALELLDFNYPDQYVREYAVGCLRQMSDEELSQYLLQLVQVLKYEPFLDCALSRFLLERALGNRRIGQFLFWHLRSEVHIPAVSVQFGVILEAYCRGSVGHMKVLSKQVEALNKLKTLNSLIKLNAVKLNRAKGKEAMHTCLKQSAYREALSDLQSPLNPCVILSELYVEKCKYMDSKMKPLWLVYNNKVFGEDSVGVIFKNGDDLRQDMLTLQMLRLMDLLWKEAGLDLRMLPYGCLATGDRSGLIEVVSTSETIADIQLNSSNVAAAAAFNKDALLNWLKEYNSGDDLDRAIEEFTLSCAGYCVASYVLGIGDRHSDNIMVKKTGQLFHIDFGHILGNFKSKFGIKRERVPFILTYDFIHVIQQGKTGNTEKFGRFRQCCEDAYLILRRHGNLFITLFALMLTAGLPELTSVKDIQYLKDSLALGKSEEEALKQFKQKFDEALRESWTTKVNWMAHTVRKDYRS
FLT4, sequence (P35916 whole entry): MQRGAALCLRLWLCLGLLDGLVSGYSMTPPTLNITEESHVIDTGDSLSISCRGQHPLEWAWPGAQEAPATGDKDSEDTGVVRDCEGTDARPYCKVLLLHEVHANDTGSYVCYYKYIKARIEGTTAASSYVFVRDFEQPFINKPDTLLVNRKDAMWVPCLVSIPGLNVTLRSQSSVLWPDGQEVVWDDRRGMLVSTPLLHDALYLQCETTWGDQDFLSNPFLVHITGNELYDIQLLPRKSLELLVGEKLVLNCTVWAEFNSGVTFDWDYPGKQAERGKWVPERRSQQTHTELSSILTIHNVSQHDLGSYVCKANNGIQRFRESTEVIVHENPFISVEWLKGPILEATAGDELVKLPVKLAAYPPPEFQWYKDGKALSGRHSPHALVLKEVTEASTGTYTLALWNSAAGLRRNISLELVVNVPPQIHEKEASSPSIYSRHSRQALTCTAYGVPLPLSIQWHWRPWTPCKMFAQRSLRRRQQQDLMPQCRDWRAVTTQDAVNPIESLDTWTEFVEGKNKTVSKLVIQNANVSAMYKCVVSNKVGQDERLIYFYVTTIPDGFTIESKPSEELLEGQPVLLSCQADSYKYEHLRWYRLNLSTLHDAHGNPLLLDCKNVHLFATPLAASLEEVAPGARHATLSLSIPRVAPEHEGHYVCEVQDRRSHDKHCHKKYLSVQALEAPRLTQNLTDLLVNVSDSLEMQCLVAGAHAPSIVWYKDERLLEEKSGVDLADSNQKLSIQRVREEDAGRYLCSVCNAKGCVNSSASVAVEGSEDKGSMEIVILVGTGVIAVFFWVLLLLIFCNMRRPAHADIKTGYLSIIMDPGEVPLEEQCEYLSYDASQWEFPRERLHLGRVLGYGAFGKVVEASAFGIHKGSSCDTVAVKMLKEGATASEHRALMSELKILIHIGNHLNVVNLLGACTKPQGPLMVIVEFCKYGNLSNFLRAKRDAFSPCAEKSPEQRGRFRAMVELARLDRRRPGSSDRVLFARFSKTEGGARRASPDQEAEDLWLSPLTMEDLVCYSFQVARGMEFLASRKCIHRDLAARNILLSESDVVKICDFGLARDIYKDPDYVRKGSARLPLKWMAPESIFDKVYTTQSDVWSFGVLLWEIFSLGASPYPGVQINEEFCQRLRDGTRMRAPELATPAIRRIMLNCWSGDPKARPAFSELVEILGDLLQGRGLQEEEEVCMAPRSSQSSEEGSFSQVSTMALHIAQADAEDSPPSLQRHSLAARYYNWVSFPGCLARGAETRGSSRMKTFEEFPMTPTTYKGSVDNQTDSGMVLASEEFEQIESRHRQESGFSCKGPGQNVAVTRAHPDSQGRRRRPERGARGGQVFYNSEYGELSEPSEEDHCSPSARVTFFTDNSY
CASK, sequence (O14936 whole entry): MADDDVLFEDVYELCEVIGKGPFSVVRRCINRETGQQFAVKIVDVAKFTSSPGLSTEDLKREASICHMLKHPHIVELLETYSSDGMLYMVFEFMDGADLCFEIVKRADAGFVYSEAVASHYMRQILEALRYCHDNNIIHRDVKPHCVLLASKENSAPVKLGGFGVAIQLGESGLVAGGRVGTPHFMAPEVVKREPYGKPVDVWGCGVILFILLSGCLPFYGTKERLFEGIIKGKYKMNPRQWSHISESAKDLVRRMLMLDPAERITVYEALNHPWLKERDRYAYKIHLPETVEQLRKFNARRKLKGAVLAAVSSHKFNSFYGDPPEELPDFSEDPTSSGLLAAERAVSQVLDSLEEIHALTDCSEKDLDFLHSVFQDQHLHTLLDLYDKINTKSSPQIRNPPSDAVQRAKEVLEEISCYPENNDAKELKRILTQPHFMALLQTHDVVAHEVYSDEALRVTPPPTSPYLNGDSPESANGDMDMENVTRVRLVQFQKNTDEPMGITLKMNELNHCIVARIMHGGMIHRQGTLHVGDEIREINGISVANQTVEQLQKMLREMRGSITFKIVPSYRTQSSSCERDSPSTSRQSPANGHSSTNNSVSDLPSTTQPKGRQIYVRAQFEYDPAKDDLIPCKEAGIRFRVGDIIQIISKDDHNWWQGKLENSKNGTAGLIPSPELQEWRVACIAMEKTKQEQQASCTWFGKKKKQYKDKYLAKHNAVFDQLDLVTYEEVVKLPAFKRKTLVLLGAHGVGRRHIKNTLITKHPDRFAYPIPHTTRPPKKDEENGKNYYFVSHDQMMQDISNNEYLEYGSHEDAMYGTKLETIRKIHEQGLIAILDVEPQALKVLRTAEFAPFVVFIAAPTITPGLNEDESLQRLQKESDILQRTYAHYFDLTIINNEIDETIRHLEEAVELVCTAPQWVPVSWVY
MKK7, sequence (O14733 whole entry): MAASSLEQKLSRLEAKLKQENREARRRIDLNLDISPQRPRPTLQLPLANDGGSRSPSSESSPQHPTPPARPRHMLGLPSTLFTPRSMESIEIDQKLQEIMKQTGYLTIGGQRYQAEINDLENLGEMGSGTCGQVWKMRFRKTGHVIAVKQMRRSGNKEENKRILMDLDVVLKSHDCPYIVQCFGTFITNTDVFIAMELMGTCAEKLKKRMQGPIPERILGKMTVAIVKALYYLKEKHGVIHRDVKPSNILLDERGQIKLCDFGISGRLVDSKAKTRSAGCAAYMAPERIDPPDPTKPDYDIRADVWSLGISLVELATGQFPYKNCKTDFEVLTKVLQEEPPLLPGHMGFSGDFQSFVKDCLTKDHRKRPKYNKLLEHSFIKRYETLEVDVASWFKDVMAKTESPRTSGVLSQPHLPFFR

Compound: CNc1ncc2cc(-c3ccc(-c4cccc(C)n4)cc3Cl)c(=O)n(C[C@H]3OC[C@H](N)CO3)c2n1 [compound 6, G-5555]
- Percent Control (ABL1(M351T)): 100%
- Percent Control (BIKE): 100%
- Percent Control (CASK): 100%
- Percent Control (CHEK2): 100%
- Percent Control (CLK1): 100%
- Percent Control (CSNK1A1L): 100%
- Percent Control (EPHB1): 100%
- Percent Control (FGFR1): 100%
- Percent Control (FGFR2): 100%
- Percent Control (FLT4): 100%
- Percent Control (FRK): 71%
- Percent Control (HIPK1): 100%
- Percent Control (HIPK2): 100%
- Percent Control (KIT(L576P)): 100%
- Percent Control (MAP3K2): 67%
- Percent Control (MAP4K4): 100%
- Percent Control (MARK2): 49%
- Percent Control (MKK7): 77%
- Percent Control (MLK2): 88%
- Percent Control (MRCKA): 70%
- Percent Control (PCTK1): 100%
- Percent Control (PIK3CB): 97%
- Percent Control (PIK3CD): 97%
- Percent Control (PIK3CG): 93%
- Percent Control (PRKCH): 78%
- Percent Control (PRKCQ): 55%
- Percent Control (S6K1): 58%
- Percent Control (TAOK1): 87%
- Percent Control (VRK2): 100%
- Percent Control (ZAP70): 100%
